# Results as given in the kinase profiling compilation of Christmann-Franck et al. (2016).
# Legend:
# Assay in all cases: KINOMEscan competition binding
# Conditions in all cases: compound 10.0 µM
# CDK8 (human) = CDK8 (human) (UniProt P49336)
# SGK110 (human) = SGK110 (human) (UniProt P0C264)
# PRKCD (human) = PRKCD (human) (UniProt Q05655)
# NTRK2 (human) = NTRK2 (human) (UniProt Q16620)
# RIPK2 (human) = RIPK2 (human) (UniProt O43353)
# PRKAA2 (human) = PRKAA2 (human) (UniProt P54646)
# PAK1 (human) = PAK1 (human) (UniProt Q13153)
# CSNK2A1 (human) = CSNK2A1 (human) (UniProt P68400)
# MAP2K2 (human) = MAP2K2 (human) (UniProt P36507)
# PDGFRA (human) = PDGFRA (human) (UniProt P16234)
# RPS6KA1 KD2 (human) = RPS6KA1 KD2 (human) (UniProt Q15418)
# CSNK1G2 (human) = CSNK1G2 (human) (UniProt P78368)
# MAP4K3 (human) = MAP4K3 (human) (UniProt Q8IVH8)
# WEE2 (human) = WEE2 (human) (UniProt P0C1S8)
# MAP2K1 (human) = MAP2K1 (human) (UniProt Q02750)
# CDK16 (human) = CDK16 (human) (UniProt Q00536)
# STK17A (human) = STK17A (human) (UniProt Q9UEE5)
# IRAK3 (human) = IRAK3 (human) (UniProt Q9Y616)
# RPS6KA4 KD2 (human) = RPS6KA4 KD2 (human) (UniProt O75676)
# RIOK2 (human) = RIOK2 (human) (UniProt Q9BVS4)
# AURKB (human) = AURKB (human) (UniProt Q96GD4)
# EPHB1 (human) = EPHB1 (human) (UniProt P54762)
# MAP2K6 (human) = MAP2K6 (human) (UniProt P52564)
# NEK6 (human) = NEK6 (human) (UniProt Q9HC98)
# TTK (human) = TTK (human) (UniProt P33981)
# PIP4K2B (human) = PIP4K2B (human) (UniProt P78356)
# EIF2AK2 (human) = EIF2AK2 (human) (UniProt P19525)
# [1] = tested on: EIF2AK4 KD2 (human), Q9P2K8 [S808G]
# ACVR2A (human) = ACVR2A (human) (UniProt P27037)
# NEK9 (human) = NEK9 (human) (UniProt Q8TD19)
# FGR (human) = FGR (human) (UniProt P09769)
# CAMK1G (human) = CAMK1G (human) (UniProt Q96NX5)
# ULK2 (human) = ULK2 (human) (UniProt Q8IYT8)
# [2] = tested on: KIT (human), P10721 [V559D]
# FLT1 (human) = FLT1 (human) (UniProt P17948)
# RPS6KA1 KD1 (human) = RPS6KA1 KD1 (human) (UniProt Q15418)
# KDR (human) = KDR (human) (UniProt P35968)
# DMPK (human) = DMPK (human) (UniProt Q09013)
# CDK19 (human) = CDK19 (human) (UniProt Q9BWU1)
# STK33 (human) = STK33 (human) (UniProt Q9BYT3)
# Chain of STK33 (human) (Q9BYT3 whole entry, looked up): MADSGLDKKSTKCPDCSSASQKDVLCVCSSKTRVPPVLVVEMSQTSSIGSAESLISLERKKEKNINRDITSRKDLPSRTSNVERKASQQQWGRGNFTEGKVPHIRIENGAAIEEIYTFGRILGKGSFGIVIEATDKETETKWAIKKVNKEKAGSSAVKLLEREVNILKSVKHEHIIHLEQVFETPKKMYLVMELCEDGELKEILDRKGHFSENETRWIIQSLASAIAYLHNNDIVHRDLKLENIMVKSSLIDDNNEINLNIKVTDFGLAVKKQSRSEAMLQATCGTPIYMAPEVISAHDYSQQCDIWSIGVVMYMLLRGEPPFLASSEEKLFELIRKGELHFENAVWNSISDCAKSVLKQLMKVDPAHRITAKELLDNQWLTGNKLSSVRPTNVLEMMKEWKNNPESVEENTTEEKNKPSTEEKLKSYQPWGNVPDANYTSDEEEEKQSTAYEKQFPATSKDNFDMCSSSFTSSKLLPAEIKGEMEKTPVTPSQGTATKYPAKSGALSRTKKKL
# Chain of WEE2 (human) (P0C1S8 whole entry, looked up): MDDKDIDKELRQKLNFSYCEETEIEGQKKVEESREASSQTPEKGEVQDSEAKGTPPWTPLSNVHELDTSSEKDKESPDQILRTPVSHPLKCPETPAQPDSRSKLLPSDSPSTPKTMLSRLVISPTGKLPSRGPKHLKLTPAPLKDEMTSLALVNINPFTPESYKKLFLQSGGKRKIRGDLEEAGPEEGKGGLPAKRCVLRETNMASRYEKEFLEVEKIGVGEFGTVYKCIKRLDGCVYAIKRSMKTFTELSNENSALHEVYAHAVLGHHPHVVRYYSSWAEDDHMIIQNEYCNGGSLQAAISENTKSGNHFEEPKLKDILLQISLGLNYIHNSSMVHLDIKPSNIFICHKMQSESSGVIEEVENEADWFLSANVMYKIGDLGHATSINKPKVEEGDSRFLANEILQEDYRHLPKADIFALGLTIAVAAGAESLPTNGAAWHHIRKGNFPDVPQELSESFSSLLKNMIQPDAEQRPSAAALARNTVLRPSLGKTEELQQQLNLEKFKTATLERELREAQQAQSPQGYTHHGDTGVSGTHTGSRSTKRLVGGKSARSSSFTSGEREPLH
# Chain of RPS6KA1 KD1 (human) (Q15418 whole entry, looked up): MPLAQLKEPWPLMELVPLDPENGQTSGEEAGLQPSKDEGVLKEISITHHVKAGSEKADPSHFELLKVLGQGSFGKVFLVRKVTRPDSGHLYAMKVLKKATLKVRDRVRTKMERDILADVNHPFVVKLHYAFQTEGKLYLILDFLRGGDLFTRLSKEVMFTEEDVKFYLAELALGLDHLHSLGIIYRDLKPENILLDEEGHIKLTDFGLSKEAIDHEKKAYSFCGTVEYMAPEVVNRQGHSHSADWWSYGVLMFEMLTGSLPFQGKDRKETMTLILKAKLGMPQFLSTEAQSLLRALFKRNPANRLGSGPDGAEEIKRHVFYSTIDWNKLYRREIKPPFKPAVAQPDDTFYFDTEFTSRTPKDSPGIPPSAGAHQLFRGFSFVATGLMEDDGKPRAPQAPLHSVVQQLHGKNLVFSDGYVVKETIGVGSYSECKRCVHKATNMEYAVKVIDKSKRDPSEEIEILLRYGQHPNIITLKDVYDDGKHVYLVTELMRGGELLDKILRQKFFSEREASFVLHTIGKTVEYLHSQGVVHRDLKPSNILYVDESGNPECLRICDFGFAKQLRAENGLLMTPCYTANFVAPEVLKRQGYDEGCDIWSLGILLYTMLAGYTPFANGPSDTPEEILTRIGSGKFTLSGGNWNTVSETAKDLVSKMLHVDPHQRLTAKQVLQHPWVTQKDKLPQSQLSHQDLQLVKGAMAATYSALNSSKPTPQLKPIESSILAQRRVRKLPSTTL
# Chain of RPS6KA1 KD2 (human) (Q15418 whole entry, looked up): as above
# Chain of ACVR2A (human) (P27037 whole entry, looked up): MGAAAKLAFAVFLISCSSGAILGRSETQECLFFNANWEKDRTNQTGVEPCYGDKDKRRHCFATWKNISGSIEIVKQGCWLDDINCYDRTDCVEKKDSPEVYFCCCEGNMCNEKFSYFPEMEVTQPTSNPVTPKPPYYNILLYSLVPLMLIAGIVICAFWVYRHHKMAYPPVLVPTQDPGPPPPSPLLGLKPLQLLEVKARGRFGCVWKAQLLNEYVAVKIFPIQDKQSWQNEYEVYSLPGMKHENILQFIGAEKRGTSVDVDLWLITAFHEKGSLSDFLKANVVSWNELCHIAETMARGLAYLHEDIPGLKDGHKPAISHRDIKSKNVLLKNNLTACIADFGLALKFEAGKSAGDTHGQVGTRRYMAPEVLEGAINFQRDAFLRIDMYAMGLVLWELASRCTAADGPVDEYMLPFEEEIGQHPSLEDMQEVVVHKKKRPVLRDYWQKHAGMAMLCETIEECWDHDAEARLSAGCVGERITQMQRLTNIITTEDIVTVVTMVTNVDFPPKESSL
# Chain of KDR (human) (P35968 whole entry, looked up): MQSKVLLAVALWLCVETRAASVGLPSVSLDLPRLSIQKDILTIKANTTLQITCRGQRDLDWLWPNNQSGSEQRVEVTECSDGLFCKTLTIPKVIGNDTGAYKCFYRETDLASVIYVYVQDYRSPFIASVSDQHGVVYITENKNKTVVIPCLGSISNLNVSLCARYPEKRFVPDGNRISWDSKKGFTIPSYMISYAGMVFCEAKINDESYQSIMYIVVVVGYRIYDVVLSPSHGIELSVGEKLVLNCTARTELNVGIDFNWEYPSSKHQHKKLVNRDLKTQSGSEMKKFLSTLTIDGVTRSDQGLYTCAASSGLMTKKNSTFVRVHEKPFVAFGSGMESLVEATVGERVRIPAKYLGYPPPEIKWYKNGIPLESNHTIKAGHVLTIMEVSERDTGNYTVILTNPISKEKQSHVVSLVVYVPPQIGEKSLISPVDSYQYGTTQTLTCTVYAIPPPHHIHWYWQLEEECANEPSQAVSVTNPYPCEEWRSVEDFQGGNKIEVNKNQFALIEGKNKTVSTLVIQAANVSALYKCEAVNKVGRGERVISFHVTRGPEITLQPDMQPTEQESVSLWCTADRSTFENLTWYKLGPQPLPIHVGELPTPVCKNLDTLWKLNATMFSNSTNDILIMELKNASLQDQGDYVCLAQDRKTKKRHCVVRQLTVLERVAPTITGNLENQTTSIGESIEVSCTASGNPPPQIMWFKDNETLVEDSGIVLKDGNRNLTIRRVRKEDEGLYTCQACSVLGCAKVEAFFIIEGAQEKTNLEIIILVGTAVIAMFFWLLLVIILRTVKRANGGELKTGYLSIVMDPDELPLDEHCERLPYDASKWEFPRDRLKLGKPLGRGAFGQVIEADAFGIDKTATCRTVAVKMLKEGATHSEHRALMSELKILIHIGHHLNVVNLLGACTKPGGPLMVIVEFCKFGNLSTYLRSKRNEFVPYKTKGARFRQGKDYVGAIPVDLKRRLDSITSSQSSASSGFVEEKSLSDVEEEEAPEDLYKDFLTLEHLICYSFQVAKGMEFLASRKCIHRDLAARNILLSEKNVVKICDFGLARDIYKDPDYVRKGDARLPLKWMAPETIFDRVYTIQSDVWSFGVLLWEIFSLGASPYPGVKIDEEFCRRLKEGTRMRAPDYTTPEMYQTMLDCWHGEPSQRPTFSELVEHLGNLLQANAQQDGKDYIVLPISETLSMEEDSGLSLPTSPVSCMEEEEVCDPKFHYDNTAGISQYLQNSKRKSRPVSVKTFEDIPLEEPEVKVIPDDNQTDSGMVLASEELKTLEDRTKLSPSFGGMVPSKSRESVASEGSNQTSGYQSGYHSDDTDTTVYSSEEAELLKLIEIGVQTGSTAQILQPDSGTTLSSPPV
# Chain of EIF2AK2 (human) (P19525 whole entry, looked up): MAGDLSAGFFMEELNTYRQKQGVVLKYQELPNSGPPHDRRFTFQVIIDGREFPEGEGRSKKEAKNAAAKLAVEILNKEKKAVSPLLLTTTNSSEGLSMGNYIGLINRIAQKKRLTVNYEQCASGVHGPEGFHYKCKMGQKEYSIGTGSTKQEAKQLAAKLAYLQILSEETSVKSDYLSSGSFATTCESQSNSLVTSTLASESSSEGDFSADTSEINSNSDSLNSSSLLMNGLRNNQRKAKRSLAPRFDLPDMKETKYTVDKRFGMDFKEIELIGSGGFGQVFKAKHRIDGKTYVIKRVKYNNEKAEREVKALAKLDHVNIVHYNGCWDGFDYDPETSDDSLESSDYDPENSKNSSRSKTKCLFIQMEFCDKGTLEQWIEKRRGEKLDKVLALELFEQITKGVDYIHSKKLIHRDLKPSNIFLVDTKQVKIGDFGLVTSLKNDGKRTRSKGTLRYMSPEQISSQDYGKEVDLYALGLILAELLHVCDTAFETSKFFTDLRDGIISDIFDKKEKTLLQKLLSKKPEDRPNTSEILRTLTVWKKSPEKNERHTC
# Chain of MAP2K6 (human) (P52564 whole entry, looked up): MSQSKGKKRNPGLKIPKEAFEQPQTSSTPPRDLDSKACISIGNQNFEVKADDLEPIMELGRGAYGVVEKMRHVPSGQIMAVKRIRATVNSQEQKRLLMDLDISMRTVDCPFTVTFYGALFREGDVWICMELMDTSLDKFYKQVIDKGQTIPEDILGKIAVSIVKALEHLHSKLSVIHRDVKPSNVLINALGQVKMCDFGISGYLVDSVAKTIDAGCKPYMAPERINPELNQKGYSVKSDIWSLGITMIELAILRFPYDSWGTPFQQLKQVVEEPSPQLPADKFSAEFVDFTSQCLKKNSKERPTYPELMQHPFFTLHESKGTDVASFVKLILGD
# Chain of CSNK1G2 (human) (P78368 whole entry, looked up): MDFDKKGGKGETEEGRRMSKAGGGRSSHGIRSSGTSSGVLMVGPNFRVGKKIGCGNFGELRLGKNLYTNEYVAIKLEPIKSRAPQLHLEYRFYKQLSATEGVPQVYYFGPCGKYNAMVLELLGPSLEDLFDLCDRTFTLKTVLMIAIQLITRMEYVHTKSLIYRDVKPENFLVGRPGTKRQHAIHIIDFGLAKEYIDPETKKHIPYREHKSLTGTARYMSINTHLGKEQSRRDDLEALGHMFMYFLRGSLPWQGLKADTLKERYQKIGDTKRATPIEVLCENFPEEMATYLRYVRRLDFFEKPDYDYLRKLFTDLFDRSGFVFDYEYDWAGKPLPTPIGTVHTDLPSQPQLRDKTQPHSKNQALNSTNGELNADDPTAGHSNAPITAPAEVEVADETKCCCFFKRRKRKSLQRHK
SMILES,"kinase still bound, per cent of control (CDK8 (human))","kinase still bound, per cent of control (SGK110 (human))","kinase still bound, per cent of control (PRKCD (human))","kinase still bound, per cent of control (NTRK2 (human))","kinase still bound, per cent of control (RIPK2 (human))","kinase still bound, per cent of control (PRKAA2 (human))","kinase still bound, per cent of control (PAK1 (human))","kinase still bound, per cent of control (CSNK2A1 (human))","kinase still bound, per cent of control (MAP2K2 (human))","kinase still bound, per cent of control (PDGFRA (human))","kinase still bound, per cent of control (RPS6KA1 KD2 (human))","kinase still bound, per cent of control (CSNK1G2 (human))","kinase still bound, per cent of control (MAP4K3 (human))","kinase still bound, per cent of control (WEE2 (human))","kinase still bound, per cent of control (MAP2K1 (human))","kinase still bound, per cent of control (CDK16 (human))","kinase still bound, per cent of control (STK17A (human))","kinase still bound, per cent of control (IRAK3 (human))","kinase still bound, per cent of control (RPS6KA4 KD2 (human))","kinase still bound, per cent of control (RIOK2 (human))",also measured
CCC(=O)N1CCN(c2ccc(-n3c(=O)ccc4cnc5ccc(-c6cnc7ccccc7c6)cc5c43)cc2C(F)(F)F)CC1,4.6%,94%,82%,81%,44%,74%,73%,94%,100%,63%,100%,100%,1.9%,100%,100%,91%,93%,27%,100%,24%,"kinase still bound, per cent of control (AURKB (human)): 82%; kinase still bound, per cent of control (EPHB1 (human)): 100%; kinase still bound, per cent of control (MAP2K6 (human)): 100%; kinase still bound, per cent of control (NEK6 (human)): 99%; kinase still bound, per cent of control (TTK (human)): 9.6%; kinase still bound, per cent of control (PIP4K2B (human)): 100%; kinase still bound, per cent of control (EIF2AK2 (human)): 88%; kinase still bound, per cent of control [1]: 99%; kinase still bound, per cent of control (ACVR2A (human)): 47%; kinase still bound, per cent of control (NEK9 (human)): 100%; kinase still bound, per cent of control (FGR (human)): 78%; kinase still bound, per cent of control (CAMK1G (human)): 74%; kinase still bound, per cent of control (ULK2 (human)): 75%; kinase still bound, per cent of control [2]: 50%; kinase still bound, per cent of control (FLT1 (human)): 79%; kinase still bound, per cent of control (RPS6KA1 KD1 (human)): 68%; kinase still bound, per cent of control (KDR (human)): 65%; kinase still bound, per cent of control (DMPK (human)): 77%; kinase still bound, per cent of control (CDK19 (human)): 1.2%; kinase still bound, per cent of control (STK33 (human)): 90%"
O=C1Nc2ccc(I)cc2/C1=C/c1cc(Br)c(O)c(Br)c1,62%,100%,70%,55%,38%,100%,100%,4.2%,74%,22%,12%,100%,100%,94%,68%,89%,2.5%,62%,47%,35%,"kinase still bound, per cent of control (AURKB (human)): 9.4%; kinase still bound, per cent of control (EPHB1 (human)): 100%; kinase still bound, per cent of control (MAP2K6 (human)): 71%; kinase still bound, per cent of control (NEK6 (human)): 96%; kinase still bound, per cent of control (TTK (human)): 17%; kinase still bound, per cent of control (PIP4K2B (human)): 10%; kinase still bound, per cent of control (EIF2AK2 (human)): 75%; kinase still bound, per cent of control [1]: 78%; kinase still bound, per cent of control (ACVR2A (human)): 100%; kinase still bound, per cent of control (NEK9 (human)): 100%; kinase still bound, per cent of control (FGR (human)): 86%; kinase still bound, per cent of control (CAMK1G (human)): 44%; kinase still bound, per cent of control (ULK2 (human)): 90%; kinase still bound, per cent of control [2]: 1.8%; kinase still bound, per cent of control (FLT1 (human)): 100%; kinase still bound, per cent of control (RPS6KA1 KD1 (human)): 42%; kinase still bound, per cent of control (KDR (human)): 100%; kinase still bound, per cent of control (DMPK (human)): 100%; kinase still bound, per cent of control (CDK19 (human)): 63%; kinase still bound, per cent of control (STK33 (human)): 94%"
COc1cc(C(=O)NC2CCN(C)CC2)ccc1Nc1ncc2c(n1)N(C1CCCC1)CCC(=O)N2C(C)C,100%,100%,0%,100%,100%,100%,100%,100%,100%,100%,100%,100%,100%,100%,100%,100%,100%,100%,100%,100%,"kinase still bound, per cent of control (AURKB (human)): 100%; kinase still bound, per cent of control (EPHB1 (human)): 100%; kinase still bound, per cent of control (MAP2K6 (human)): 100%; kinase still bound, per cent of control (NEK6 (human)): 100%; kinase still bound, per cent of control (TTK (human)): 100%; kinase still bound, per cent of control (PIP4K2B (human)): 100%; kinase still bound, per cent of control (EIF2AK2 (human)): 100%; kinase still bound, per cent of control [1]: 100%; kinase still bound, per cent of control (ACVR2A (human)): 100%; kinase still bound, per cent of control (NEK9 (human)): 100%; kinase still bound, per cent of control (FGR (human)): 100%; kinase still bound, per cent of control (CAMK1G (human)): 100%; kinase still bound, per cent of control (ULK2 (human)): 100%; kinase still bound, per cent of control [2]: 100%; kinase still bound, per cent of control (FLT1 (human)): 100%; kinase still bound, per cent of control (RPS6KA1 KD1 (human)): 100%; kinase still bound, per cent of control (KDR (human)): 100%; kinase still bound, per cent of control (DMPK (human)): 100%; kinase still bound, per cent of control (CDK19 (human)): 100%; kinase still bound, per cent of control (STK33 (human)): 32%"
